# Laboratory results reported in patent publication US11000033B2, “Ketone or oxime compound, and herbicide” (NISSAN CHEMICAL CORPORATION, priority 2014, dated 2021).
# Legend:
# Type in all cases: in vivo
# [1] = system: Echinochloa oryzacola Vasing.; experiment: Test Example 1: herbicidal activity, application before weed generation in submerged conditions (symbol A)
# Method in brief: (§1)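 0–5 visual score, 3 wk post-application. Submerged pots, alluvial soil, water 4 cm; seeds sown mixed, rice at 2.5 leaves transplanted. Emulsion diluted to predetermined dose, applied to water surface at sowing. 25–30 °C greenhouse.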
# Monochoria vaginalis = experiment: Test Example 1: herbicidal activity, application before weed generation in submerged conditions (symbol C)
# Method in brief: as §1
# [2] = system: directly sowed rice plant; experiment: Test Example 3: effect on crop by foliage application, Wagner pot (symbol b); conditions: for b (directly sowed rice plant) effect on crop grade: Table 24
# Method in brief: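 Plants are raised from seed in flooded paddy conditions: water stands 0.1–0.5 cm over alluvial soil, and the pot is kept in a greenhouse at 25–30 °C. Species sown are barnyardgrass (E. crus-galli var. crus-galli), Leptochloa chinensis, Cyperus difformis and rice.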
# Digitaria ciliaris = experiment: Test Example 4: herbicidal effect by soil treatment (symbol F)
# Method in brief: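 Seeds were sown in sterilized diluvial soil, covered with about 1.5 cm of soil, and the soil surface was sprayed with a water-diluted emulsion of the compound at a predetermined rate. Plants grew in a greenhouse at 25° C. to 30° C.; effects were scored visually 3 weeks after application.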
# soybean [3] = experiment: Test Example 4: effect on crop by soil treatment (symbol d)
# Method in brief: (§2)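 Seeds were sown in spots on sterilized diluvial soil in a plastic box and covered with about 1.5 cm of soil. Plants were then grown in a greenhouse at 25° C. to 30° C.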
# wheat [4] = experiment: Test Example 4: effect on crop by soil treatment (symbol e)
# Method in brief: as §2
# rapeseed = experiment: Test Example 4: effect on crop by soil treatment (symbol g)
# Method in brief: as §2
# [5] = system: Echinochloa crus-galli var. crus-galli; experiment: Test Example 5: herbicidal effect by foliage application, plastic box (symbol H); conditions: 3 weeks after application
# Method in brief: (§3)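 Effect is rated 3 weeks after a foliar spray of water-diluted emulsion concentrate at a predetermined herbicide amount. Plants had grown 14 days in a 25° C. to 30° C. greenhouse from seed in sterilized diluvial soil.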
# Lolium multiflorum Lam. = experiment: Test Example 5: herbicidal effect by foliage application, plastic box (symbol K); conditions: 3 weeks after application
# Method in brief: as §3
# Amaranthus retroflexus = experiment: Test Example 5: herbicidal effect by foliage application, plastic box (symbol N); conditions: 3 weeks after application
# Method in brief: as §3
# Chenopodium album = experiment: Test Example 5: herbicidal effect by foliage application, plastic box (symbol O); conditions: 3 weeks after application
# Method in brief: as §3
# Galium spurium = experiment: Test Example 5: herbicidal effect by foliage application, plastic box (symbol Q); conditions: 3 weeks after application
# Method in brief: as §3
# Veronica persica = experiment: Test Example 5: herbicidal effect by foliage application, plastic box (symbol R); conditions: 3 weeks after application
# Method in brief: as §3
# soybean [6] = experiment: Test Example 5: effect on crop by foliage application, plastic box (symbol d); conditions: 3 weeks after application
# Method in brief: (§4)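 Soil: sterilized diluvial. Container: plastic box, 21 × 13 cm, 7 cm deep. Sowing: spot-like, ~1.5 cm cover. Growth: greenhouse, 25° C. to 30° C.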
# wheat [7] = experiment: Test Example 5: effect on crop by foliage application, plastic box (symbol e); conditions: 3 weeks after application
# Method in brief: as §4
# beet = experiment: Test Example 5: effect on crop by foliage application, plastic box (symbol f); conditions: 3 weeks after application
# Method in brief: as §4
# [8] = application herbicide amount 320 g/ha
# [9] = application herbicide amount 102 g/ha
smiles,measurement,setting,value
CCCON=C(C)CC1CC(O)=C(c2c(C)cc(C)cc2C)C1=O (stereo not shown) [1-123],"Herbicidal effect grade, A: Echinochloa oryzacola Vasing.",[1]; [8],5 (Herbicidal ratio of 90% or more (almost completely withered))
same,"Herbicidal effect grade, C: Monochoria vaginalis",Monochoria vaginalis; [8],3 (Herbicidal ratio of 40% or higher and lower than 70%)
same,"effect on crop b (directly sowed rice plant), grade 0-5",[2]; [8],5 (Herbicidal ratio of 90% or more (almost completely withered))
same,"F: Digitaria ciliaris, herbicidal effect grade",Digitaria ciliaris; 320 g/ha,5 (Herbicidal ratio of 90% or more (almost completely withered))
same,"d: soybean, effect grade on crop",soybean [3]; 320 g/ha,0 (Herbicidal ratio of 5% or lower (almost no effect))
same,"e: wheat, effect grade on crop",wheat [4]; 320 g/ha,0 (Herbicidal ratio of 5% or lower (almost no effect))
same,"g: rapeseed, effect grade on crop",rapeseed; 320 g/ha,3 (Herbicidal ratio of 40% or higher and lower than 70%)
same,"H: Echinochloa crus-galli var. crus-galli, herbicidal effect (criteria 0-5)",[5]; 320 g/ha,5 (Herbicidal ratio of 90% or more (almost completely withered))
same,"K: Lolium multiflorum Lam., herbicidal effect (criteria 0-5)",Lolium multiflorum Lam.; 320 g/ha,5 (Herbicidal ratio of 90% or more (almost completely withered))
same,"N: Amaranthus retroflexus, herbicidal effect (criteria 0-5)",Amaranthus retroflexus; 320 g/ha,0 (Herbicidal ratio of 5% or lower (almost no effect))
same,"O: Chenopodium album, herbicidal effect (criteria 0-5)",Chenopodium album; 320 g/ha,0 (Herbicidal ratio of 5% or lower (almost no effect))
same,"Q: Galium spurium, herbicidal effect (criteria 0-5)",Galium spurium; 320 g/ha,0 (Herbicidal ratio of 5% or lower (almost no effect))
same,"R: Veronica persica, herbicidal effect (criteria 0-5)",Veronica persica; 320 g/ha,4 (Herbicidal ratio of 70% or higher and lower than 90%)
same,"d: soybean, effect on crop (criteria 0-5)",soybean [6]; 320 g/ha,2 (Herbicidal ratio of 20% or higher and lower than 40%)
same,"e: wheat, effect on crop (criteria 0-5)",wheat [7]; 320 g/ha,5 (Herbicidal ratio of 90% or more (almost completely withered))
same,"f: beet, effect on crop (criteria 0-5)",beet; 320 g/ha,0 (Herbicidal ratio of 5% or lower (almost no effect))
Cc1cc(-n2cc(Cl)cn2)cc(C)c1C1=C(O)CC(CC(=NOCC(F)(F)F)C(C)C)C1=O (stereo not shown) [9-014],A (Echinochloa oryzacola Vasing.) herbicidal effect grade,[1]; [8],5 (Herbicidal ratio of 90% or more (almost completely withered))
same,C (Monochoria vaginalis) herbicidal effect grade,Monochoria vaginalis; [8],2 (Herbicidal ratio of 20% or higher and lower than 40%)
same,b (directly sowed rice plant) effect on crop grade,[2]; [8],5 (Herbicidal ratio of 90% or more (almost completely withered))
same,"Herbicidal effect grade, F: Digitaria ciliaris",Digitaria ciliaris; [8],4 (Herbicidal ratio of 70% or higher and lower than 90%)
same,"Effect on crop grade, d: soybean",soybean [3]; [8],0 (Herbicidal ratio of 5% or lower (almost no effect))
same,"Effect on crop grade, e: wheat",wheat [4]; [8],0 (Herbicidal ratio of 5% or lower (almost no effect))
same,"Effect on crop grade, g: rapeseed",rapeseed; [8],0 (Herbicidal ratio of 5% or lower (almost no effect))
same,"H: Echinochloa crus-galli var. crus-galli, herbicidal effect grade",[5]; 320 g/ha,5 (Herbicidal ratio of 90% or more (almost completely withered))
same,"K: Lolium multiflorum Lam., herbicidal effect grade",Lolium multiflorum Lam.; 320 g/ha,4 (Herbicidal ratio of 70% or higher and lower than 90%)
same,"N: Amaranthus retroflexus, herbicidal effect grade",Amaranthus retroflexus; 320 g/ha,0 (Herbicidal ratio of 5% or lower (almost no effect))
same,"O: Chenopodium album, herbicidal effect grade",Chenopodium album; 320 g/ha,0 (Herbicidal ratio of 5% or lower (almost no effect))
same,"Q: Galium spurium, herbicidal effect grade",Galium spurium; 320 g/ha,0 (Herbicidal ratio of 5% or lower (almost no effect))
same,"R: Veronica persica, herbicidal effect grade",Veronica persica; 320 g/ha,2 (Herbicidal ratio of 20% or higher and lower than 40%)
same,"d: soybean, effect on crop grade",soybean [6]; 320 g/ha,0 (Herbicidal ratio of 5% or lower (almost no effect))
same,"e: wheat, effect on crop grade",wheat [7]; 320 g/ha,1 (Herbicidal ratio of 5% or higher and lower than 20%)
same,"f: beet, effect on crop grade",beet; 320 g/ha,0 (Herbicidal ratio of 5% or lower (almost no effect))
CCC(=O)CC1CC(O)=C(c2c(C)cc(Br)cc2OC)C1=O (racemic) [14-002],A (Echinochloa oryzacola Vasing.) herbicidal effect grade,[1]; [8],4 (Herbicidal ratio of 70% or higher and lower than 90%)
same,C (Monochoria vaginalis) herbicidal effect grade,Monochoria vaginalis; [8],2 (Herbicidal ratio of 20% or higher and lower than 40%)
same,b (directly sowed rice plant) effect on crop grade,[2]; [8],5 (Herbicidal ratio of 90% or more (almost completely withered))
same,"F: Digitaria ciliaris, herbicidal effect grade",Digitaria ciliaris; [8],5 (Herbicidal ratio of 90% or more (almost completely withered))
same,"d: soybean, effect on crop grade",soybean [3]; [8],0 (Herbicidal ratio of 5% or lower (almost no effect))
same,"e: wheat, effect on crop grade",wheat [4]; [8],3 (Herbicidal ratio of 40% or higher and lower than 70%)
same,"g: rapeseed, effect on crop grade",rapeseed; [8],0 (Herbicidal ratio of 5% or lower (almost no effect))
same,"H: Echinochloa crus-galli var. crus-galli, herbicidal effect grade",[5]; 320 g/ha,5 (Herbicidal ratio of 90% or more (almost completely withered))
same,"K: Lolium multiflorum Lam., herbicidal effect grade",Lolium multiflorum Lam.; 320 g/ha,5 (Herbicidal ratio of 90% or more (almost completely withered))
same,"N: Amaranthus retroflexus, herbicidal effect grade",Amaranthus retroflexus; 320 g/ha,0 (Herbicidal ratio of 5% or lower (almost no effect))
same,"O: Chenopodium album, herbicidal effect grade",Chenopodium album; 320 g/ha,0 (Herbicidal ratio of 5% or lower (almost no effect))
same,"Q: Galium spurium, herbicidal effect grade",Galium spurium; 320 g/ha,0 (Herbicidal ratio of 5% or lower (almost no effect))
same,"R: Veronica persica, herbicidal effect grade",Veronica persica; 320 g/ha,0 (Herbicidal ratio of 5% or lower (almost no effect))
same,"d: soybean, effect on crop grade",soybean [6]; 320 g/ha,1 (Herbicidal ratio of 5% or higher and lower than 20%)
same,"e: wheat, effect on crop grade",wheat [7]; 320 g/ha,3 (Herbicidal ratio of 40% or higher and lower than 70%)
same,"f: beet, effect on crop grade",beet; 320 g/ha,0 (Herbicidal ratio of 5% or lower (almost no effect))
"CC(=O)CC1CC(O)=C(c2c(C)cc(C)cc2C)C1=O (stereo not shown) [2-001, 3-hydroxy-2-mesityl-5-(2-oxopropyl)cyclopent-2-enone]","Herbicidal effect grade, A: Echinochloa oryzacola Vasing.",[1]; [9],4 (Herbicidal ratio of 70% or higher and lower than 90%)
same,"Herbicidal effect grade, C: Monochoria vaginalis",Monochoria vaginalis; [9],0 (Herbicidal ratio of 5% or lower (almost no effect))
same,"effect on crop b (directly sowed rice plant), grade 0-5",[2]; [9],5 (Herbicidal ratio of 90% or more (almost completely withered))
same,"F: Digitaria ciliaris, herbicidal effect grade",Digitaria ciliaris; 102 g/ha,5 (Herbicidal ratio of 90% or more (almost completely withered))
same,"d: soybean, effect grade on crop",soybean [3]; 102 g/ha,0 (Herbicidal ratio of 5% or lower (almost no effect))
same,"e: wheat, effect grade on crop",wheat [4]; 102 g/ha,0 (Herbicidal ratio of 5% or lower (almost no effect))
same,"g: rapeseed, effect grade on crop",rapeseed; 102 g/ha,3 (Herbicidal ratio of 40% or higher and lower than 70%)
same,"H: Echinochloa crus-galli var. crus-galli, herbicidal effect grade",[5]; 102 g/ha,5 (Herbicidal ratio of 90% or more (almost completely withered))
same,"K: Lolium multiflorum Lam., herbicidal effect grade",Lolium multiflorum Lam.; 102 g/ha,5 (Herbicidal ratio of 90% or more (almost completely withered))
same,"N: Amaranthus retroflexus, herbicidal effect grade",Amaranthus retroflexus; 102 g/ha,2 (Herbicidal ratio of 20% or higher and lower than 40%)
same,"O: Chenopodium album, herbicidal effect grade",Chenopodium album; 102 g/ha,3 (Herbicidal ratio of 40% or higher and lower than 70%)
same,"Q: Galium spurium, herbicidal effect grade",Galium spurium; 102 g/ha,3 (Herbicidal ratio of 40% or higher and lower than 70%)
same,"R: Veronica persica, herbicidal effect grade",Veronica persica; 102 g/ha,2 (Herbicidal ratio of 20% or higher and lower than 40%)
same,"d: soybean, effect on crop grade",soybean [6]; 102 g/ha,0 (Herbicidal ratio of 5% or lower (almost no effect))
same,"e: wheat, effect on crop grade",wheat [7]; 102 g/ha,0 (Herbicidal ratio of 5% or lower (almost no effect))
same,"f: beet, effect on crop grade",beet; 102 g/ha,1 (Herbicidal ratio of 5% or higher and lower than 20%)
